Results on 14 molecules are retold here after patent US4628062A, “1,4-naphthoquinone derivatives having anti-inflammatory action” (priority 1983, dated 1986).

Read-outs that look alike come from different tables or passages of the source.

Test [1] concerns oedema induced by carrageenan in the rat paw. Put plainly: inhibition of carrageenan-induced oedema in the rat paw (Winter et al., modified). It is filed as in vivo. Conditions: po, read-out: % inhibition of carrageenan oedema at 2.5 mg/kg orally. (The carrageenan paw model is a standard test of acute inflammation.)
For the next test, the target named is T1, cyclooxygenase (Mus musculus, UniProt P22437).
T1 construct: endogenous in cells
T1 sequence (P22437 27-602): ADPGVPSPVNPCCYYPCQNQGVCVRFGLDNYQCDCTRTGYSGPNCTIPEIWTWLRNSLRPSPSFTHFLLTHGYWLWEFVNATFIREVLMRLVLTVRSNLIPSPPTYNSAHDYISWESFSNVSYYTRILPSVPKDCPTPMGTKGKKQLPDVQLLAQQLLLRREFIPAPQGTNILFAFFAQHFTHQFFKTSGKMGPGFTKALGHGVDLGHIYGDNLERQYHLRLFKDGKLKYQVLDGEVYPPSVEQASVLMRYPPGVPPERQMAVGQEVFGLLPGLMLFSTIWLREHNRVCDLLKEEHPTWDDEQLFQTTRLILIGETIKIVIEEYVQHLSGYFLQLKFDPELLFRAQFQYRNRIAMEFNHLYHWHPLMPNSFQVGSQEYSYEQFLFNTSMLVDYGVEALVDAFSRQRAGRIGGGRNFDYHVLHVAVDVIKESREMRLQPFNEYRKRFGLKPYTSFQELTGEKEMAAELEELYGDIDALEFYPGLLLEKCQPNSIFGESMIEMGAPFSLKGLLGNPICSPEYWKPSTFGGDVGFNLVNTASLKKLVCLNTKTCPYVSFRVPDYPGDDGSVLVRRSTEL
Put plainly: inhibition of arachidonic acid metabolism via the cyclooxygenase route (Brune et al.). It is filed as biochemical. The following applies: read-out: % inhibition of cyclooxygenase at 1 × 10^-5 mol/l.

Another test deals with T2, lipoxygenase (Rattus norvegicus, UniProt P12527).
T2 construct: release of LTB4 from neutrophilic granulocytes (PMN) of the rat; endogenous in cells; host or cells: rat neutrophilic granulocytes (PMN)
T2 sequence (P12527 1-673): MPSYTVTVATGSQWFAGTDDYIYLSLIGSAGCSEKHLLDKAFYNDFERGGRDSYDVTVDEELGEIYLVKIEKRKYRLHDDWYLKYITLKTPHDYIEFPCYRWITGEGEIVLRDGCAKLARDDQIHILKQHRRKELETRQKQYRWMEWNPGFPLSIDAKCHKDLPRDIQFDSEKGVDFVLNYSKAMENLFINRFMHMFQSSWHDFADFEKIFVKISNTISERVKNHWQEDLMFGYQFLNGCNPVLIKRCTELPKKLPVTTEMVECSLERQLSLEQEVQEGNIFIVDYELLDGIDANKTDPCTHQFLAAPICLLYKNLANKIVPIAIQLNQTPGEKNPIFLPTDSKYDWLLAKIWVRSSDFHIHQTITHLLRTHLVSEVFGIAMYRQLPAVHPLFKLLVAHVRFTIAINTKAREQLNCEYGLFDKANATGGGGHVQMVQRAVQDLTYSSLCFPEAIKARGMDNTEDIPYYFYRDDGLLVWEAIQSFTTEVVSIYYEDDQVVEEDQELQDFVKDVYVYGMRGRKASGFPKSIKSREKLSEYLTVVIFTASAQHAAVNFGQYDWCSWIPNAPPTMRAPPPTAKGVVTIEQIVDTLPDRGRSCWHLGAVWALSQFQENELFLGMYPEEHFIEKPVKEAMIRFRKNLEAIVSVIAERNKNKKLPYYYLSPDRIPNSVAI
Nature of the test: inhibition of arachidonic acid metabolism via the lipoxygenase route: LTB4 release from PMN of the rat after stimulation with Ca ionophor, reverse phase HPLC. It is filed as cell-based. Conditions: read-out: % inhibition of lipoxygenase at 1 × 10^-5 mol/l.

The subject of another test is PMN. Put plainly: inhibition of aggregation of PMN stimulated by LTB4 (Cunningham et al.). It is filed as cell-based. The following applies: 1 × 10^-4 mol/l.
Setting [2] is: rat paw, 2.5 mg/kg orally, λ-carrageenan 0.25% suspension in physiological saline.
Where [3] appears, read: 1 × 10^-5 mol/l, LTB4 release from rat PMN, Ca ionophor.

Consider `O=C1C=C(O)C(=O)c2ccccc21` [Compound 1], for which the inhibition in vivo at 2.5 mg/kg in test [1] (Rattus norvegicus) is 34%. Further, the results for the inhibition at 10 µM at cyclooxygenase and on lipoxygenase were 31% and 70%, respectively.
As for `COC1=CC(=O)c2ccccc2C1=O` [Compound 2], the inhibition in vivo at 2.5 mg/kg in test [1] (setting [2]) came to 29%. Also, the inhibition at 10 µM at cyclooxygenase turned out to be 78%; on lipoxygenase (setting [3]), 98%. In the test on PMN, this molecule came in with an inhibition at 100 µM of 76%.
As to `COCCOC1=CC(=O)c2ccccc2C1=O` [Compound 3], in test [1] (setting [2]), the inhibition in vivo at 2.5 mg/kg was found to be 38%. Besides, the values for the inhibition at 10 µM at cyclooxygenase and at lipoxygenase (setting [3]) were 45% and 100%, respectively.
Regarding `COC1=C(OC)C(=O)c2ccccc2C1=O` [Compound 4], the inhibition in vivo at 2.5 mg/kg in test [1] (setting [2]) turned out to be 36%. Further, the inhibition at 10 µM worked out at 37% on cyclooxygenase and 100% on lipoxygenase (setting [3]). In the test on PMN, this molecule showed an inhibition at 100 µM of 79%.
Turning to `NC1=CC(=O)c2ccccc2C1=O` [Compound 5], the inhibition in vivo at 2.5 mg/kg in test [1] (Rattus norvegicus) is 48%. In addition, the results for the inhibition at 10 µM on cyclooxygenase and at lipoxygenase were 55% and 100%, respectively.
With `NC1=CC(=O)c2cc(S(N)(=O)=O)ccc2C1=O` [Compound 6], the inhibition in vivo at 2.5 mg/kg in test [1] (setting [2]) was found to be 39%. Also, the inhibition at 10 µM on cyclooxygenase stood at 65%; on lipoxygenase (setting [3]), 100%. The molecule also registered an inhibition at 100 µM in the test on PMN of 77%.
Turning to `CC(=O)NC1=CC(=O)c2ccccc2C1=O` [Compound 7], the inhibition in vivo at 2.5 mg/kg in test [1] (setting [2]) was found to be 32%. For the same molecule, the results for the inhibition at 10 µM at cyclooxygenase and at lipoxygenase (setting [3]) were 65% and 100%, respectively. The same molecule gave an inhibition at 100 µM with PMN of 49%.
In the same order, the values of `CC1=C(SCC(=O)O)C(=O)c2ccccc2C1=O` [Compound 8] are 41%, 72%, 100% and 34%.
For `CNC(=O)CSC1=C(C)C(=O)c2ccccc2C1=O` [Compound 9], in that order: 25%, 89%, 100% and 100%.
`CC1=C(SCC(=O)NC(C)C)C(=O)c2ccccc2C1=O` [Compound 10]: the inhibition in vivo at 2.5 mg/kg in test [1] (setting [2]) turned out to be 45%. The results for the inhibition at 10 µM at cyclooxygenase and at lipoxygenase (setting [3]) were 89% and 100%, respectively. In addition, the inhibition at 100 µM in the test with PMN was determined as 95%.
For `O=C(CSC1=C(SCC(=O)NCCO)C(=O)c2ccccc2C1=O)NCCO` [Compound 11], in that order: 45%, 50%, 80% and 36%.
In the same order, the values of `C=CCNC1=CC(=O)c2cc(S(N)(=O)=O)ccc2C1=O` [Compound 12, 2-Allylamino-6-sulphamoyl-1,4-naphthoquinone] are 39%, 38%, 100% and 72%.
As for `CCC(=O)NC1=C(OCCOC)C(=O)c2ccccc2C1=O` [Compound 13, 2-Propionylamino-3-(2-methoxyethoxy)-1,4-naphthoquinone], the inhibition in vivo at 2.5 mg/kg in test [1] (setting [2]) worked out at 48%. Besides, at lipoxygenase (setting [3]), the inhibition at 10 µM came out at 100%.
In the same order, the values of `CCOC1=C(NC(C)=O)C(=O)c2ccccc2C1=O` [Compound 14, 2-Acetylamino-3-ethoxy-1,4-naphthoquinone] are 49% and 100%.
